# Where two headings read alike, the source gives them in different places.
# Assays:
# Assay type in all cases: cell-based
# E. coli armA = experiment: microbe, parasite or virus in culture; conditions: E. coli HAV#056, Clinical, armA
# Method in brief: (§1)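 Per CLSI, MICs by broth microdilution or agar dilution; strains other than streptococci and anaerobes were sub-cultured overnight at 35° C on blood agar, with a final broth inoculum of 5×10^5 CFU/mL.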
# E. coli ΔTolC = experiment: microbe, parasite or virus in culture; conditions: E. coli HAV#038, ΔTolC
# Method in brief: as §1
# S. aureus BAA 977 iErmA = experiment: microbe, parasite or virus in culture
# Method in brief: as §1
# S. aureus MP-549 msrA = experiment: microbe, parasite or virus in culture; conditions: S. aureus HAV#032, MP-549, MSR(A)
# Method in brief: as §1
# E. coli ATCC 25922 = experiment: MIC (broth microdilution or agar dilution, CLSI); conditions: E. coli HAV#006, ATCC 25922
# Method in brief: as §1
# E. coli LptD = experiment: MIC (broth microdilution or agar dilution, CLSI); conditions: E. coli HAV#040, LptD
# Method in brief: as §1
# E. faecalis ATCC 29212 = experiment: MIC (broth microdilution or agar dilution, CLSI)
# Method in brief: as §1
# [1] = system: E. faecalis MMX 847; cErmB; experiment: MIC (broth microdilution or agar dilution, CLSI); conditions: E. faecalis HAV#036, MMX 847, mac-resistant, cErmB
# Method in brief: as §1
# K. oxytoca Clinical = experiment: MIC (broth microdilution or agar dilution, CLSI); conditions: K. oxytoca HAV#450, Clinical
# Method in brief: as §1
# K. pneumoniae ATCC 10031 = experiment: MIC (broth microdilution or agar dilution, CLSI)
# Method in brief: as §1
# S. aureus ATCC 29213 = experiment: MIC (broth microdilution or agar dilution, CLSI)
# Method in brief: as §1
# S. aureus ATCC 700699 = experiment: MIC (broth microdilution or agar dilution, CLSI); conditions: S. aureus HAV#202, ATCC 700699 (VISA)
# Method in brief: as §1
# [2] = system: S. aureus ATCC BAA-1707 (MRSA); experiment: MIC (broth microdilution or agar dilution, CLSI)
# Method in brief: as §1
# S. aureus MMX 3035 cErmA = experiment: MIC (broth microdilution or agar dilution, CLSI); conditions: S. aureus HAV#031, MMX 3035, cErmA
# Method in brief: as §1
# S. aureus hVISA = experiment: MIC (broth microdilution or agar dilution, CLSI); conditions: S. aureus HAV#204, hVISA
# Method in brief: as §1
# S. pneumoniae ATCC 49619 = experiment: MIC (broth microdilution or agar dilution, CLSI)
# Method in brief: as §1
# S. pneumoniae ATCC 6303 = experiment: MIC (broth microdilution or agar dilution, CLSI); conditions: S. pneumoniae HAV#351, ATCC 6303
# Method in brief: as §1
# [3] = system: S. pneumoniae MMX 3028 cErmB; experiment: MIC (broth microdilution or agar dilution, CLSI); conditions: S. pneumoniae HAV#033, MMX 3028, cErmB
# Method in brief: as §1
# [4] = system: S. pneumoniae MMX 3031 cMefA; experiment: MIC (broth microdilution or agar dilution, CLSI); conditions: S. pneumoniae HAV#034, MMX 3031, cMefA
# Method in brief: as §1
# S. pyogenes ATCC 19615 = experiment: MIC (broth microdilution or agar dilution, CLSI)
# Method in brief: as §1
# [5] = system: S. pyogenes MMX 946; cErmB; experiment: MIC (broth microdilution or agar dilution, CLSI); conditions: S. pyogenes HAV#035, MMX 946, cErmB, mac-resistant
# Method in brief: as §1
# [6] = Staphylococcus aureus, read-out: MIC
molecule,measurement,setting,value
C[C@H]1COc2c(N3CCN(C)CC3)c(F)cc3c(=O)c(C(=O)O)cn1c23 [Levofloxacin],MIC,E. coli armA; Escherichia coli,≤ 0.06 µg/mL
same,MIC,E. coli ΔTolC; Escherichia coli,≤ 0.06 µg/mL
same,MIC,"S. aureus BAA 977 iErmA; Staphylococcus aureus, BAA-977 / MRSA",0.5 µg/mL
same,MIC,"S. aureus MP-549 msrA; Staphylococcus aureus, MP549MSRA, read-out: MIC",1 µg/mL
same,MIC,"E. coli ATCC 25922; Escherichia coli, ATCC25922, read-out: MIC",≤ 0.06 µg/mL
same,MIC,"E. coli LptD; Escherichia coli, read-out: MIC",≤ 0.06 µg/mL
same,MIC,"E. faecalis ATCC 29212; Enterococcus faecalis, ATCC29212, E. faecalis HAV#005, ATCC 29212, read-out: MIC",2 µg/mL
same,MIC,"[1]; Enterococcus faecalis, read-out: MIC",> 64 µg/mL
same,MIC,"K. oxytoca Clinical; Klebsiella oxytoca, read-out: MIC",0.5 µg/mL
same,MIC,"K. pneumoniae ATCC 10031; Klebsiella pneumoniae, ATCC10031",≤ 0.03 µg/mL
same,MIC,"S. aureus ATCC 29213; Staphylococcus aureus, ATCC29213, S. aureus HAV#001, ATCC 29213, MP-549, read-out: MIC",0.25 µg/mL
same,MIC,S. aureus ATCC 700699; [6],32 µg/mL
same,MIC,[2]; Staphylococcus aureus,> 128 µg/mL
same,MIC,"S. aureus MMX 3035 cErmA; Staphylococcus aureus, MMX3035CERMA, read-out: MIC",4 µg/mL
same,MIC,S. aureus hVISA; [6],8 µg/mL
same,MIC,"S. pneumoniae ATCC 49619; Streptococcus pneumoniae, ATCC49619, S. pneumoniae HAV#003, ATCC 49619, read-out: MIC",1 µg/mL
same,MIC,"S. pneumoniae ATCC 6303; Streptococcus pneumoniae, ATCC6303, read-out: MIC",0.5 µg/mL
same,MIC,"[3]; Streptococcus pneumoniae, MMX3028CERMB, read-out: MIC",0.5 µg/mL
same,MIC,"[4]; Streptococcus pneumoniae, MMX3031CMEFA, read-out: MIC",0.5 µg/mL
same,MIC,"S. pyogenes ATCC 19615; Streptococcus pyogenes, ATCC19615, S. pyogenes HAV#004, ATCC 19615, read-out: MIC",0.5 µg/mL
same,MIC,"[5]; Streptococcus pyogenes, read-out: MIC",0.5 µg/mL
Gentamicin,MIC,E. coli armA,>256 µg/mL
same,MIC,E. coli ΔTolC,1 µg/mL
same,MIC,"S. aureus BAA 977 iErmA; S. aureus #HAV002, ATCC BAA 977, iErmA, MRSA",2 µg/mL
same,MIC,S. aureus MP-549 msrA,1 µg/mL
same,MIC,E. coli ATCC 25922,2 µg/mL
same,MIC,E. coli LptD,1 µg/mL
same,MIC,"E. faecalis ATCC 29212; E. faecalis HAV#005, ATCC 29212",16 µg/mL
same,MIC,[1],>64 µg/mL
same,MIC,K. oxytoca Clinical,4 µg/mL
same,MIC,"K. pneumoniae ATCC 10031; K. pneumoniae HAV#008, ATCC 10031",0.25 µg/mL
same,MIC,"S. aureus ATCC 29213; S. aureus HAV#001, ATCC 29213, MP-549",1 µg/mL
same,MIC,S. aureus ATCC 700699,>64 µg/mL
same,MIC,"[2]; S. aureus HAV#016, ATCC BAA-1707, MRSA",1 µg/mL
same,MIC,S. aureus MMX 3035 cErmA,1 µg/mL
same,MIC,S. aureus hVISA,>64 µg/mL
same,MIC,"S. pneumoniae ATCC 49619; S. pneumoniae HAV#003, ATCC 49619",16 µg/mL
same,MIC,S. pneumoniae ATCC 6303,32 µg/mL
same,MIC,[3],4 µg/mL
same,MIC,[4],8 µg/mL
same,MIC,"S. pyogenes ATCC 19615; S. pyogenes HAV#004, ATCC 19615",8 µg/mL
same,MIC,[5],16 µg/mL

# Reference: patent US20230203081A1, “LINCOSAMIDE ANTIBIOTICS AND USES THEREOF” (President and Fellows of Harvard College, priority 2020, published 2023)
